Assay results from patent US4540700A, “Treatment of diabetic complications with certain spiro-imidazolidine-diones” (Alcon Laboratories, Inc., priority 1984, dated 1985).

Key:
cataracts in rats = test: prevention or retardation of cataracts in rats fed 30% galactose diet (compound in chow); type: in vivo, rat; details: for condition of rat eyes: 4 and 8 Mg/Kg/day in 30% galactose chow, 32 days; for inhibition of cataract development: 4 and 8 Mg/Kg/day
Text: (§1) The compounds were formulated in ground Purina Rodent Laboratory Chow, Number 5001, containing 30% galactose.
Eighty-four rats were divided into the following seven groups (six treated groups having different compound intake levels and an untreated galactose control) having different compound intake levels as shown in Table IV.
(§2) The galactose control group (twelve rats, twenty-four eyes) were fed ground Purina Rodent Laboratory Chow, No. 5001 containing 30% by weight galactose. The six test compound groups (twelve rats, twenty-four eyes per group) were fed the same 30% galactose chow except that the chow was formulated to deliver […] of the indicated test compound (see Table IV).
It is known that young male rats fed a 30% galactose diet (As previously described) will develop lenticular changes within several days which predicatively progress in time irreversibly to cataracts. Aldose reductase inhibitor compounds which are in vivo active will delay or prevent galactose induced cataractogenesis. In this in vivo experiment, the test aldose reductase inhibitor compounds were formulated in the 30% galactose feed to evaluate their in vivo anticataract activity.

[1] = system: galactitol levels in the lenses; test: galactitol levels in lenses of galactose-fed rats at Day 32; type: in vivo, rat; design: average galactitol levels in lenses: unit not given here; details: for average galactitol levels in lenses: Day 32
Text: as §1, §2

Compound | Times to Cataract, Mean (cataracts in rats; 4 Mg/Kg/day) [days] | average time to snowflake-like opacities (cataracts in rats; 4 Mg/Kg/day) [days] | condition of rat eyes (cataracts in rats) | time to cataract, days less than at 8 Mg/Kg/day (cataracts in rats; 4 vs 8 Mg/Kg/day, average) [days] | Times to Cataract, Mean (cataracts in rats; 8 Mg/Kg/day) [days] | average time to snowflake-like opacities (cataracts in rats; 8 Mg/Kg/day) [days] | average galactitol levels in lenses ([1]; 4 Mg/Kg/day) | average galactitol levels in lenses ([1]; 8 Mg/Kg/day) | inhibition of cataract development (cataracts in rats) | potency relative to the 2-fluoro compound ([1]; 4 and 8 Mg/Kg/day)
O=C1NC(=O)C2(CCOc3ccc(F)cc32)N1 (racemic) [Sarges Racemic, dl-spiro-(6-fluorochroman-4,4'-imidazolidine)-2',5'-dione, reference compound] | 15.68 | 15.7 | developed snowflake-like opacities | 4 | 19.68 | 19.7 | 9.238 | 9.107 |  | 
O=C1NC(=O)C2(N1)c1cc(F)ccc1-c1ccc(F)cc12 [M, Spiro-[2,7-difluorofluoren-9,4'-imidazolidine]-2',5'-dione] |  |  | asymptomatic |  |  |  | 2.560 | 1.399 | inhibit cataract development | more potent
O=C1NC(=O)C2(N1)c1ccccc1-c1ccc(F)cc12 (racemic) [Compound L, dl-Spiro(2-fluorofluoren-9,4'-imidazolidine)-2',5'-dione] |  |  | asymptomatic |  |  |  | 6.274 | 5.074 | inhibit cataract development | 
